According to patent US9302999B2, “Substituted triazoles as herbicides” (E. I. DU PONT DE NEMOURS AND COMPANY, priority 2012, dated 2016):
Read-outs that look alike come from different tables or passages of the source.

How the values were obtained:
Type in all cases: in vivo
[1] = test system: pigweed (Amaranthus retroflexus); test: Test A pre-/postemergence: pigweed; conditions: for pest or weed control at 125 g/ha / pest or weed control at 500 g/ha: Amaranthus retroflexus, 240 h
Procedure, shortened: (§1)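 Rating scale 0–100 (100 = complete control), visual, ~10 days after application in the greenhouse. Applications: preemergence directed soil spray; postemergence at 1–2 leaves.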

[2] = test system: wheat (Triticum aestivum); test: Test A pre-/postemergence: wheat; conditions: for plant injury at 125 g/ha / plant injury at 500 g/ha: Triticum aestivum, 240 h
Procedure, shortened: as §1

[3] = test system: morningglory (Ipomoea spp.); test: Test A pre-/postemergence: morningglory; conditions: for pest or weed control at 125 g/ha / pest or weed control at 500 g/ha: Ipomoea, 240 h
Procedure, shortened: as §1

[4] = test system: velvetleaf (Abutilon theophrasti); test: Test A pre-/postemergence: velvetleaf; conditions: for pest or weed control at 125 g/ha / pest or weed control at 500 g/ha: Abutilon theophrasti, 240 h
Procedure, shortened: as §1

[5] = test system: foxtail, giant (giant foxtail, Setaria faberii); test: Test A pre-/postemergence: foxtail, giant; conditions: for pest or weed control at 125 g/ha / pest or weed control at 500 g/ha: Setaria faberi, 240 h
Procedure, shortened: as §1

[6] = test system: winter wheat (Triticum aestivum); test: Test C pre-/postemergence: winter wheat; conditions: Preemergence
Description: (§2) Seeds of plant species selected from blackgrass (Alopecurus myosuroides), bromegrass, downy (downy bromegrass, Bromus tectorum), foxtail, green (green foxtail, Setaria viridis), ryegrass, Italian (Italian ryegrass, Lolium multiflorum), winter wheat (Triticum aestivum), wild oat (Avena fatua), galium (catchweed bedstraw, Galium aparine), bermudagrass (Cynodon dactylon), surinam grass (Brachiaria decumbens), cocklebur (common cocklebur, Xanthium strumarium), corn (Zea mays), large crabgrass (Digitaria sanguinalis), woolly cupgrass (Eriochloa villosa), foxtail, giant (giant foxtail, Setaria faberii), goosegrass (Eleusine indica), johnsongrass (Sorghum halepense), kochia (Kochia scoparia), lambsquarters (Chenopodium album), morningglory (Ipomoea coccinea), nightshade (eastern black nightshade, Solanum ptycanthum), nutsedge, yellow (yellow nutsedge, Cyperus esculentus), pigweed (Amaranthus retroflexus), ragweed (common ragweed, Ambrosia elation), soybean (Glycine max), common (oilseed) sunflower (Helianthus annuus), Russian thistle (Salsola kali) and velvetleaf (Abutilon theophrasti) were planted into a blend of loam soil and sand and treated preemergence with test chemicals formulated in a non-phytotoxic solvent mixture which included a surfactant.
(§3) At the same time, plants selected from these crop and weed species and also barley (winter barley, Hordeum vulgare), canarygrass (Phalaris minor), chickweed (common chickweed, Stellaria media) windgrass (Apera spica-venti) and deadnettle (henbit deadnettle, Lamium amplexicaule) were planted in pots containing Redi-Earth® planting medium (Scotts Company, 14111 Scottslawn Road, Marysville, Ohio 43041) comprising spaghnum peat moss, vermiculite, wetting agent and starter nutrients and treated with postemergence applications of test chemicals formulated in the same manner. Plants ranged in height from 2 to 18 cm (1- to 4-leaf stage) for postemergence treatments.
(§4) Treated plants and controls were maintained in a greenhouse for 13 to 15 days, after which time all species were compared to controls and visually evaluated. Plant response ratings, summarized in Table C, are based on a scale of 0 to 100 where 0 is no effect and 100 is complete control. A dash (-) response means no test result.

[7] = test system: velvetleaf (Abutilon theophrasti); test: Test C pre-/postemergence: velvetleaf; conditions: Preemergence
Description: as §2, §3, §4

[8] = test system: morningglory (Ipomoea coccinea); test: Test C pre-/postemergence: morningglory; conditions: Preemergence
Description: as §2, §3, §4

[9] = test system: corn (Zea mays); test: Test C pre-/postemergence: corn; conditions: Preemergence
Description: as §2, §3, §4

[10] = post-emergence, Postemergence, 125 g ai/ha, 0 to 100 scale, 0 is no effect, 100 is complete control, read-out: Pigweed plant response rating
[11] = post-emergence, Postemergence, 500 g ai/ha, visual rating on 0 to 100 scale (0 no effect, 100 complete control), approximately ten days, read-out: Pigweed plant response rating
[12] = post-emergence, Postemergence, 125 g ai/ha, 0 to 100 scale, 0 is no effect, 100 is complete control, read-out: Wheat plant response rating
[13] = post-emergence, Postemergence, 500 g ai/ha, visual rating on 0 to 100 scale (0 no effect, 100 complete control), approximately ten days, read-out: Wheat plant response rating
[14] = post-emergence, Postemergence, 125 g ai/ha, 0 to 100 scale, 0 is no effect, 100 is complete control, read-out: Morningglory plant response rating
[15] = post-emergence, Postemergence, 500 g ai/ha, visual rating on 0 to 100 scale (0 no effect, 100 complete control), approximately ten days, read-out: Morningglory plant response rating
[16] = post-emergence, Postemergence, 125 g ai/ha, 0 to 100 scale, 0 is no effect, 100 is complete control, read-out: Velvetleaf plant response rating
[17] = post-emergence, Postemergence, 500 g ai/ha, visual rating on 0 to 100 scale (0 no effect, 100 complete control), approximately ten days, read-out: Velvetleaf plant response rating
[18] = post-emergence, Postemergence, 125 g ai/ha, 0 to 100 scale, 0 is no effect, 100 is complete control, read-out: Foxtail, Giant plant response rating
[19] = post-emergence, Postemergence, 500 g ai/ha, visual rating on 0 to 100 scale (0 no effect, 100 complete control), approximately ten days, read-out: Foxtail, Giant plant response rating
[20] = Postemergence, 125 g ai/ha, 0 to 100 scale, 0 is no effect, 100 is complete control
[21] = Postemergence, 500 g ai/ha, 0 to 100 scale, 0 is no effect, 100 is complete control
[22] = Preemergence, 125 g ai/ha, 0 to 100 scale where 0 is no effect and 100 is complete control
[23] = Preemergence, 500 g ai/ha, 0 to 100 scale (0 no effect, 100 complete control)
[24] = 16 g ai/ha, scale 0 (no effect) to 100 (complete control)
[25] = 31 g ai/ha, scale 0 (no effect) to 100 (complete control)
[26] = 62 g ai/ha, scale of 0 to 100, 0 is no effect, 100 is complete control
[27] = 125 g ai/ha, scale 0 to 100, 0 no effect, 100 complete control

## CCc1nn(-c2ccc(C(F)(F)F)cc2)nc1Oc1cccc(OC(F)(F)F)c1 [Compound 125, 4-ethyl-5-[3-(trifluoromethoxy)phenoxy]-2-[4-(trifluoromethyl)phenyl]-2H-1,2,3-triazole]
[1]; [10]
  pest or weed control at 125 g/ha: 90%
[1]; [11]
  pest or weed control at 500 g/ha: 100%
[1]; pre-emergence, Preemergence, 125 g ai/ha, 0 to 100 scale where 0 is no effect and 100 is complete control, read-out: Plant response rating, Pigweed
  pest or weed control at 125 g/ha: 70%
[1]; pre-emergence, Preemergence, 500 g ai/ha, 0 to 100 scale (0 no effect, 100 complete control), read-out: Plant response rating, Pigweed
  pest or weed control at 500 g/ha: 90%
[2]; [12]
  plant injury at 125 g/ha: 0%
[2]; [13]
  plant injury at 500 g/ha: 20%
[2]; pre-emergence, Preemergence, 125 g ai/ha, 0 to 100 scale where 0 is no effect and 100 is complete control, read-out: Plant response rating, Wheat
  plant injury at 125 g/ha: 0%
[2]; pre-emergence, Preemergence, 500 g ai/ha, 0 to 100 scale (0 no effect, 100 complete control), read-out: Plant response rating, Wheat
  plant injury at 500 g/ha: 0%
[3]; [14]
  pest or weed control at 125 g/ha: 60%
[3]; [15]
  pest or weed control at 500 g/ha: 100%
[3]; pre-emergence, Preemergence, 125 g ai/ha, 0 to 100 scale where 0 is no effect and 100 is complete control, read-out: Plant response rating, Morningglory
  pest or weed control at 125 g/ha: 0%
[3]; pre-emergence, Preemergence, 500 g ai/ha, 0 to 100 scale (0 no effect, 100 complete control), read-out: Plant response rating, Morningglory
  pest or weed control at 500 g/ha: 10%
[4]; [16]
  pest or weed control at 125 g/ha: 30%
[4]; [17]
  pest or weed control at 500 g/ha: 70%
[4]; pre-emergence, Preemergence, 125 g ai/ha, 0 to 100 scale where 0 is no effect and 100 is complete control, read-out: Plant response rating, Velvetleaf
  pest or weed control at 125 g/ha: 0%
[4]; pre-emergence, Preemergence, 500 g ai/ha, 0 to 100 scale (0 no effect, 100 complete control), read-out: Plant response rating, Velvetleaf
  pest or weed control at 500 g/ha: 50%
[5]; [18]
  pest or weed control at 125 g/ha: 50%
[5]; [19]
  pest or weed control at 500 g/ha: 60%
[5]; pre-emergence, Preemergence, 125 g ai/ha, 0 to 100 scale where 0 is no effect and 100 is complete control, read-out: Plant response rating, Foxtail, Giant
  pest or weed control at 125 g/ha: 80%
[5]; pre-emergence, Preemergence, 500 g ai/ha, 0 to 100 scale (0 no effect, 100 complete control), read-out: Plant response rating, Foxtail, Giant
  pest or weed control at 500 g/ha: 90%

## CCOc1nn(-c2ccc(Br)cc2)nc1Cc1ccnc(C(F)(F)F)c1 [Compound 189]
[1]; [20]
  Plant response rating, Pigweed: 100
[1]; [21]
  Pigweed plant response rating: 100
[1]; [22]
  Plant response rating, Pigweed: 100
[1]; [23]
  Plant response rating, Pigweed: 100
[2]; [20]
  Plant response rating, Wheat: 50
[2]; [21]
  Wheat plant response rating: 60
[2]; [22]
  Plant response rating, Wheat: 20
[2]; [23]
  Plant response rating, Wheat: 50
[3]; [20]
  Plant response rating, Morningglory: 60
[3]; [21]
  Morningglory plant response rating: 80
[3]; [22]
  Plant response rating, Morningglory: 20
[3]; [23]
  Plant response rating, Morningglory: 30
[6]; [24]
  Plant response rating, Wheat: 0
[6]; [25]
  Plant response rating, Wheat: 5
[6]; [26]
  Plant response rating, Wheat: 15
[6]; [27]
  Plant response rating, Wheat: 30
[7]; [24]
  Plant response rating, Velvetleaf: 10
[7]; [25]
  Plant response rating, Velvetleaf: 15
[7]; [26]
  Plant response rating, Velvetleaf: 40
[7]; [27]
  Plant response rating, Velvetleaf: 60
[8]; [25]
  Plant response rating, Morningglory: 10
[8]; [26]
  Plant response rating, Morningglory: 40
[8]; [27]
  Plant response rating, Morningglory: 60
[9]; [24]
  Plant response rating, Corn: 5
[9]; [25]
  Plant response rating, Corn: 5
[9]; [26]
  Plant response rating, Corn: 15
[9]; [27]
  Plant response rating, Corn: 20
[4]; [20]
  Plant response rating, Velvetleaf: 70
[4]; [21]
  Velvetleaf plant response rating: 90
[4]; [22]
  Plant response rating, Velvetleaf: 20
[4]; [23]
  Plant response rating, Velvetleaf: 60
[5]; [20]
  Plant response rating, Foxtail, Giant: 90
[5]; [21]
  Foxtail, Giant plant response rating: 90
[5]; [22]
  Plant response rating, Foxtail, Giant: 100
[5]; [23]
  Plant response rating, Foxtail, Giant: 100

## COc1nn(-c2ccc(C(F)(F)F)cc2)nc1Cn1ccc(C(F)(F)F)n1 [Compound 17, 4-methoxy-2-[4-(trifluoromethyl)phenyl]-5-[[3-(trifluoromethyl)-1H-pyrazol-1-yl]methyl]-2H-1,2,3-triazole]
[1]; [10]
  pest or weed control at 125 g/ha: 90%
[1]; [11]
  pest or weed control at 500 g/ha: 100%
[1]; pre-emergence, Preemergence, 125 g ai/ha, 0 to 100 scale (0 no effect, 100 complete control), read-out: Plant response rating, Pigweed
  pest or weed control at 125 g/ha: 90%
[1]; pre-emergence, Preemergence, 500 g ai/ha, 0 to 100 scale, 0 is no effect, 100 is complete control, read-out: Plant response rating, Pigweed
  pest or weed control at 500 g/ha: 100%
[2]; [12]
  plant injury at 125 g/ha: 20%
[2]; [13]
  plant injury at 500 g/ha: 40%
[2]; pre-emergence, Preemergence, 125 g ai/ha, 0 to 100 scale (0 no effect, 100 complete control), read-out: Plant response rating, Wheat
  plant injury at 125 g/ha: 0%
[2]; pre-emergence, Preemergence, 500 g ai/ha, 0 to 100 scale, 0 is no effect, 100 is complete control, read-out: Plant response rating, Wheat
  plant injury at 500 g/ha: 0%
[3]; [14]
  pest or weed control at 125 g/ha: 50%
[3]; [15]
  pest or weed control at 500 g/ha: 90%
[3]; pre-emergence, Preemergence, 125 g ai/ha, 0 to 100 scale (0 no effect, 100 complete control), read-out: Plant response rating, Morningglory
  pest or weed control at 125 g/ha: 0%
[3]; pre-emergence, Preemergence, 500 g ai/ha, 0 to 100 scale, 0 is no effect, 100 is complete control, read-out: Plant response rating, Morningglory
  pest or weed control at 500 g/ha: 50%
[4]; [16]
  pest or weed control at 125 g/ha: 90%
[4]; [17]
  pest or weed control at 500 g/ha: 100%
[4]; pre-emergence, Preemergence, 125 g ai/ha, 0 to 100 scale (0 no effect, 100 complete control), read-out: Plant response rating, Velvetleaf
  pest or weed control at 125 g/ha: 30%
[4]; pre-emergence, Preemergence, 500 g ai/ha, 0 to 100 scale, 0 is no effect, 100 is complete control, read-out: Plant response rating, Velvetleaf
  pest or weed control at 500 g/ha: 40%
[5]; [18]
  pest or weed control at 125 g/ha: 60%
[5]; [19]
  pest or weed control at 500 g/ha: 80%
[5]; pre-emergence, Preemergence, 125 g ai/ha, 0 to 100 scale (0 no effect, 100 complete control), read-out: Plant response rating, Foxtail, Giant
  pest or weed control at 125 g/ha: 90%
[5]; pre-emergence, Preemergence, 500 g ai/ha, 0 to 100 scale, 0 is no effect, 100 is complete control, read-out: Plant response rating, Foxtail, Giant
  pest or weed control at 500 g/ha: 100%
